This note sets out measurements from US9605004B2, “Chemical compounds” (SYNGENTA LIMITED, priority 2013, dated 2017).

Structures are written as SMILES.

For test [1], the system named is a variety of test species. Put plainly: Pre-emergence herbicidal activity (Example 8a, Table 2). The test is classed as in vivo. More on the design: key: 0 = no damage to plant, 5 = total damage to plant. The settings on record: application pre-emergence, rate 1000 g/ha, evaluated after 13 days. The procedure, abridged:
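Pre-emergence spray, one day post-sowing; vehicle acetone/water (50:50) + 0.5% Tween 20, aqueous dilution. Glasshouse 24/16 °C, 14 h light, 65% RH, watering twice daily. Score at 13 d on 0–5 scale, 5 = total damage.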

For test [2], the system named is a variety of test species. Put plainly: Post-emergence herbicidal activity (Example 8b, Table 3). The test is classed as in vivo. The settings on record: application post-emergence, rate 1000 g/ha, evaluated after 13 days, scale 0-5; for Herbicidal damage score, ABUTH: Abutilon theophrasti; for Herbicidal damage score, ALOMY: Alopecurus myosuroides; for Herbicidal damage score, AMARE: Amaranthus retroflexus; for Herbicidal damage score, ECHCG: Echinochloa crus-galli; for Herbicidal damage score, SETFA: Setaria faberi; for Herbicidal damage score, ZEAMX: Zea mays. The essentials:
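Pot-grown plants, 8 days after sowing, were sprayed with compound formulated in acetone/water (50:50) with 0.5% Tween 20. Glasshouse conditions 24/16° C day/night, 14 h light, 65% humidity; damage scored after 13 days on a 0 (none) to 5 (total) scale.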

Take `COC1=C(C)C(O)N(c2cc(C(F)(F)F)n(C)n2)C1=O` (stereo not drawn) [Compound H4]: in test [1], the “Pre-emergence herbicidal activity, damage score ABUTH” value amounted to 5; the “Pre-emergence herbicidal activity, damage score ALOMY” value is listed as 4; the “Pre-emergence herbicidal activity, damage score AMARE” value was found to be 5; the “Pre-emergence herbicidal activity, damage score ECHCG” value was 5. For the same molecule, in test [1], the “Pre-emergence herbicidal activity, damage score SETFA” value worked out at 5 and the “Pre-emergence herbicidal activity, damage score ZEAMX” value was 4. Further, in test [2], the “Herbicidal damage score, ABUTH” value amounted to 5; the “Herbicidal damage score, ALOMY” value was found to be 5; the “Herbicidal damage score, AMARE” value was determined as 5; the “Herbicidal damage score, ECHCG” value stood at 5. In test [2], the “Herbicidal damage score, SETFA” value was 5 and the “Herbicidal damage score, ZEAMX” value came out at 5.
As to `CCn1nc(N2C(=O)C(Cl)=C(C)C2O)cc1C(F)(F)F` (stereo not drawn) [Compound C1], in test [1], the “Pre-emergence herbicidal activity, damage score ABUTH” value amounted to 5; the “Pre-emergence herbicidal activity, damage score ALOMY” value was determined as 4; the “Pre-emergence herbicidal activity, damage score AMARE” value worked out at 5; the “Pre-emergence herbicidal activity, damage score ECHCG” value was 5. In test [1], the “Pre-emergence herbicidal activity, damage score SETFA” value worked out at 4 and the “Pre-emergence herbicidal activity, damage score ZEAMX” value is 4. In test [2], the “Herbicidal damage score, ABUTH” value was 5; the “Herbicidal damage score, ALOMY” value amounted to 5; the “Herbicidal damage score, AMARE” value worked out at 5; the “Herbicidal damage score, ECHCG” value was determined as 5. Moreover, in test [2], the “Herbicidal damage score, SETFA” value turned out to be 4 and the “Herbicidal damage score, ZEAMX” value amounted to 3.
Take `CC1=C(Cl)C(=O)N(c2cc3n(n2)CCC3C)C1O` (mixture of isomers) [Compound G6]: in test [1], the “Pre-emergence herbicidal activity, damage score ABUTH” value turned out to be 5; the “Pre-emergence herbicidal activity, damage score ALOMY” value amounted to 4; the “Pre-emergence herbicidal activity, damage score AMARE” value was 5; the “Pre-emergence herbicidal activity, damage score ECHCG” value is listed as 5. Besides, in test [1], the “Pre-emergence herbicidal activity, damage score SETFA” value was 4 and the “Pre-emergence herbicidal activity, damage score ZEAMX” value is 3. In addition, in test [2], the “Herbicidal damage score, ABUTH” value turned out to be 5; the “Herbicidal damage score, ALOMY” value was 5; the “Herbicidal damage score, AMARE” value came to 5; the “Herbicidal damage score, ECHCG” value turned out to be 5. In test [2], the “Herbicidal damage score, SETFA” value stood at 5 and the “Herbicidal damage score, ZEAMX” value was found to be 5.
On to `CCCC1=C(Br)C(=O)N(c2nn(C)c(C(C)(C)C)c2C#N)C1O` (stereo not drawn) [Compound L4], for which, in test [1], the “Pre-emergence herbicidal activity, damage score ABUTH” value is 4; the “Pre-emergence herbicidal activity, damage score ALOMY” value stood at 4; the “Pre-emergence herbicidal activity, damage score AMARE” value was 3; the “Pre-emergence herbicidal activity, damage score ECHCG” value stood at 5. Moreover, in test [1], the “Pre-emergence herbicidal activity, damage score SETFA” value came to 4 and the “Pre-emergence herbicidal activity, damage score ZEAMX” value is 2. Moreover, in test [2], the “Herbicidal damage score, ABUTH” value worked out at 5; the “Herbicidal damage score, ALOMY” value is 5; the “Herbicidal damage score, AMARE” value came out at 5; the “Herbicidal damage score, ECHCG” value was found to be 5. Also, in test [2], the “Herbicidal damage score, SETFA” value stood at 5 and the “Herbicidal damage score, ZEAMX” value is on record as 2.
`CC1=C(Br)C(=O)N(c2cc(C(C)(C)C)n(C)n2)C1O` (stereo not drawn) [Compound J1]: in test [1], the “Pre-emergence herbicidal activity, damage score ABUTH” value was 5; the “Pre-emergence herbicidal activity, damage score ALOMY” value stood at 3; the “Pre-emergence herbicidal activity, damage score AMARE” value worked out at 5; the “Pre-emergence herbicidal activity, damage score ECHCG” value is on record as 5. Also, in test [1], the “Pre-emergence herbicidal activity, damage score SETFA” value is reported as 4 and the “Pre-emergence herbicidal activity, damage score ZEAMX” value turned out to be 2. In addition, in test [2], the “Herbicidal damage score, ABUTH” value came to 5; the “Herbicidal damage score, ALOMY” value was found to be 5; the “Herbicidal damage score, AMARE” value was found to be 5; the “Herbicidal damage score, ECHCG” value worked out at 5. Moreover, in test [2], the “Herbicidal damage score, SETFA” value is 5 and the “Herbicidal damage score, ZEAMX” value was found to be 4.
As for `CSc1c(C#N)c(N2C(=O)C(Cl)=C(C)C2O)nn1C` (stereo not drawn) [Compound D5], in test [1], the “Pre-emergence herbicidal activity, damage score ABUTH” value is 0; the “Pre-emergence herbicidal activity, damage score ALOMY” value is listed as 0; the “Pre-emergence herbicidal activity, damage score AMARE” value was 0; the “Pre-emergence herbicidal activity, damage score ECHCG” value turned out to be 0. Further, in test [1], the “Pre-emergence herbicidal activity, damage score SETFA” value is given as 0 and the “Pre-emergence herbicidal activity, damage score ZEAMX” value is reported as 0. For the same molecule, in test [2], the “Herbicidal damage score, ABUTH” value came out at 0; the “Herbicidal damage score, ALOMY” value is 0; the “Herbicidal damage score, AMARE” value came out at 0; the “Herbicidal damage score, ECHCG” value came out at 0. In test [2], the “Herbicidal damage score, SETFA” value is listed as 0 and the “Herbicidal damage score, ZEAMX” value came to 0.
Regarding `CCO/C=C\c1cc(N2C(=O)C(Cl)=C(C)C2O)nn1C` (stereo not drawn) [Compound B49], in test [1], the “Pre-emergence herbicidal activity, damage score ABUTH” value worked out at 0; the “Pre-emergence herbicidal activity, damage score ALOMY” value was 0; the “Pre-emergence herbicidal activity, damage score AMARE” value came to 0; the “Pre-emergence herbicidal activity, damage score ECHCG” value was 0. Also, in test [1], the “Pre-emergence herbicidal activity, damage score SETFA” value is 0 and the “Pre-emergence herbicidal activity, damage score ZEAMX” value worked out at 0. Further, in test [2], the “Herbicidal damage score, ABUTH” value came out at 2; the “Herbicidal damage score, ALOMY” value turned out to be 0; the “Herbicidal damage score, AMARE” value came out at 4; the “Herbicidal damage score, ECHCG” value amounted to 0. For the same molecule, in test [2], the “Herbicidal damage score, SETFA” value was determined as 3 and the “Herbicidal damage score, ZEAMX” value came to 1.
As to `CCn1nc(N2C(=O)C(Cl)=C(C)C2O)cc1C(C)(C)C` (stereo not drawn) [Compound C8], in test [1], the “Pre-emergence herbicidal activity, damage score ABUTH” value is listed as 4; the “Pre-emergence herbicidal activity, damage score ALOMY” value is listed as 4; the “Pre-emergence herbicidal activity, damage score AMARE” value was 5; the “Pre-emergence herbicidal activity, damage score ECHCG” value amounted to 4. In test [1], the “Pre-emergence herbicidal activity, damage score SETFA” value worked out at 5 and the “Pre-emergence herbicidal activity, damage score ZEAMX” value came out at 2. For the same molecule, in test [2], the “Herbicidal damage score, ABUTH” value is 5; the “Herbicidal damage score, ALOMY” value was found to be 5; the “Herbicidal damage score, AMARE” value stood at 4; the “Herbicidal damage score, ECHCG” value was found to be 5. Besides, in test [2], the “Herbicidal damage score, SETFA” value is 5 and the “Herbicidal damage score, ZEAMX” value is 3.
In the case of `CC1=C(Br)C(=O)N(c2cc3n(n2)CCC3(C)C)C1O` (stereo not drawn) [Compound M1], in test [1], the “Pre-emergence herbicidal activity, damage score ABUTH” value amounted to 5; the “Pre-emergence herbicidal activity, damage score ALOMY” value is on record as 4; the “Pre-emergence herbicidal activity, damage score AMARE” value turned out to be 5; the “Pre-emergence herbicidal activity, damage score ECHCG” value worked out at 5. Besides, in test [1], the “Pre-emergence herbicidal activity, damage score SETFA” value was determined as 5 and the “Pre-emergence herbicidal activity, damage score ZEAMX” value is listed as 4. In addition, in test [2], the “Herbicidal damage score, ABUTH” value is 5; the “Herbicidal damage score, ALOMY” value worked out at 5; the “Herbicidal damage score, AMARE” value is reported as 5; the “Herbicidal damage score, ECHCG” value is recorded as 5. In test [2], the “Herbicidal damage score, SETFA” value is given as 5 and the “Herbicidal damage score, ZEAMX” value is 4.
As to `CC1=C(Cl)C(=O)N(c2cc(C(F)(F)F)n(C(C)C)n2)C1O` (stereo not drawn) [Compound C7], in test [1], the “Pre-emergence herbicidal activity, damage score ABUTH” value is 4; the “Pre-emergence herbicidal activity, damage score ALOMY” value is 3; the “Pre-emergence herbicidal activity, damage score AMARE” value is listed as 4; the “Pre-emergence herbicidal activity, damage score ECHCG” value was 4. In addition, in test [1], the “Pre-emergence herbicidal activity, damage score SETFA” value was found to be 4 and the “Pre-emergence herbicidal activity, damage score ZEAMX” value is listed as 3. For the same molecule, in test [2], the “Herbicidal damage score, ABUTH” value amounted to 4; the “Herbicidal damage score, ALOMY” value came out at 4; the “Herbicidal damage score, AMARE” value is 4; the “Herbicidal damage score, ECHCG” value is 5. Also, in test [2], the “Herbicidal damage score, SETFA” value was found to be 4 and the “Herbicidal damage score, ZEAMX” value is 2.
`COC1=C(OC)C(O)N(c2cc3n(n2)CCC3(C)C)C1=O` (stereo not drawn) [Compound W1]: in test [1], the “Pre-emergence herbicidal activity, damage score ABUTH” value is 5; the “Pre-emergence herbicidal activity, damage score ALOMY” value turned out to be 4; the “Pre-emergence herbicidal activity, damage score AMARE” value stood at 5; the “Pre-emergence herbicidal activity, damage score ECHCG” value stood at 4. In addition, in test [1], the “Pre-emergence herbicidal activity, damage score SETFA” value came to 5 and the “Pre-emergence herbicidal activity, damage score ZEAMX” value amounted to 3. For the same molecule, in test [2], the “Herbicidal damage score, ABUTH” value was 5; the “Herbicidal damage score, ALOMY” value is reported as 5; the “Herbicidal damage score, AMARE” value amounted to 5; the “Herbicidal damage score, ECHCG” value came to 5. In addition, in test [2], the “Herbicidal damage score, SETFA” value was 5 and the “Herbicidal damage score, ZEAMX” value is 5.
`CC1=C(Cl)C(=O)N(c2nn(C)c3c2CCCC3(C)C)C1O` (stereo not drawn) [Compound E5]: in test [1], the “Pre-emergence herbicidal activity, damage score ABUTH” value was 5; the “Pre-emergence herbicidal activity, damage score ALOMY” value was 3; the “Pre-emergence herbicidal activity, damage score AMARE” value amounted to 5; the “Pre-emergence herbicidal activity, damage score ECHCG” value was found to be 5. Besides, in test [1], the “Pre-emergence herbicidal activity, damage score SETFA” value worked out at 5 and the “Pre-emergence herbicidal activity, damage score ZEAMX” value turned out to be 2. Moreover, in test [2], the “Herbicidal damage score, ABUTH” value is recorded as 5; the “Herbicidal damage score, ALOMY” value is 5; the “Herbicidal damage score, AMARE” value is on record as 5; the “Herbicidal damage score, ECHCG” value amounted to 5. For the same molecule, in test [2], the “Herbicidal damage score, SETFA” value amounted to 5 and the “Herbicidal damage score, ZEAMX” value turned out to be 4.
